Source: ChEMBL document CHEMBL1131280, “(2S,4S)-amino-4-(2,2-diphenylethyl)pentanedioic acid selective group 2 metabotropic glutamate receptor antagonist” (Bioorg Med Chem Lett, 1998)
Values belong to the compound of their own block, whether it stands above or below them.

Tests used:
[1] = Inhibitory activity towards group 2 metabotropic glutamate receptor by displacement of ACPD-sensitive [3H]- glutamate in rat forebrain membrane; type: cell membranes
[2] = target: Glutamate receptor ionotropic, AMPA (Rattus norvegicus, UniProt P19490+P19491+P19492+P19493); assay: Binding affinity against Ionotropic glutamate receptor using [3H]-AMPA displacement from rat forebrain preparations
[3] = target: Glutamate receptor ionotropic, kainate; assay: Binding affinity against Ionotropic glutamate receptor using [3H]-Kainate displacement from rat forebrain preparations
[4] = target: Glutamate receptor ionotropic, kainate 3 (Rattus norvegicus, UniProt P42264); assay: Binding affinity against Ionotropic glutamate receptor using ACPD sensitive [3H]- glutamate displacement from rat forebrain preparations
Glutamate receptor ionotropic, kainate 3, sequence (P42264 whole entry): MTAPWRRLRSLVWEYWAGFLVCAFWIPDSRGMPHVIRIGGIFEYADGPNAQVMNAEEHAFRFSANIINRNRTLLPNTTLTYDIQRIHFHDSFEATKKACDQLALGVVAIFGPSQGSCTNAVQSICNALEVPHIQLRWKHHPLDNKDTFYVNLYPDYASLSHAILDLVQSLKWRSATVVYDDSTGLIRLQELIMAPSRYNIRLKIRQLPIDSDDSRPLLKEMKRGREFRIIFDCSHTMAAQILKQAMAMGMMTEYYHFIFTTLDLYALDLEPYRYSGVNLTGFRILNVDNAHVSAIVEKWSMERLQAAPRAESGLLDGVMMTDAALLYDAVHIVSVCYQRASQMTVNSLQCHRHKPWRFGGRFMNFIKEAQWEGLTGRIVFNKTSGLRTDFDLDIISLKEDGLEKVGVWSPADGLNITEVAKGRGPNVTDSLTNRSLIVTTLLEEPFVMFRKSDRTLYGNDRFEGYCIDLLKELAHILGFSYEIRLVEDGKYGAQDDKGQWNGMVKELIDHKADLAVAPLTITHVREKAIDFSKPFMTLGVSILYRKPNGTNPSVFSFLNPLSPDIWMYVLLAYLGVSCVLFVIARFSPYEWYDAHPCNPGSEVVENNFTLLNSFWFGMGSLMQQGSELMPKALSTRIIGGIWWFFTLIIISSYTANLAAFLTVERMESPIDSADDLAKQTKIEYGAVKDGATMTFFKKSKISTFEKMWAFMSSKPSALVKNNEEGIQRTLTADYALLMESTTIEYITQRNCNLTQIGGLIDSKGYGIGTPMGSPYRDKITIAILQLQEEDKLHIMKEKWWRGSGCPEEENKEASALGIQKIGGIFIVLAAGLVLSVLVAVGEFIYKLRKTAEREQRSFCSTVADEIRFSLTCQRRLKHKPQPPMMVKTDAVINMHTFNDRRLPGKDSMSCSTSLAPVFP

[5] = target: Metabotropic glutamate receptor 1 (Homo sapiens, UniProt Q13255); assay: Tested for […] in non-neuronal cells (RGT) expressing human Metabotropic glutamate receptor 1 by measuring ACPD (100 uM)-stimulated phosphoinositide hydrolysis; type: functional, cell-based
Metabotropic glutamate receptor 1, sequence (Q13255 whole entry): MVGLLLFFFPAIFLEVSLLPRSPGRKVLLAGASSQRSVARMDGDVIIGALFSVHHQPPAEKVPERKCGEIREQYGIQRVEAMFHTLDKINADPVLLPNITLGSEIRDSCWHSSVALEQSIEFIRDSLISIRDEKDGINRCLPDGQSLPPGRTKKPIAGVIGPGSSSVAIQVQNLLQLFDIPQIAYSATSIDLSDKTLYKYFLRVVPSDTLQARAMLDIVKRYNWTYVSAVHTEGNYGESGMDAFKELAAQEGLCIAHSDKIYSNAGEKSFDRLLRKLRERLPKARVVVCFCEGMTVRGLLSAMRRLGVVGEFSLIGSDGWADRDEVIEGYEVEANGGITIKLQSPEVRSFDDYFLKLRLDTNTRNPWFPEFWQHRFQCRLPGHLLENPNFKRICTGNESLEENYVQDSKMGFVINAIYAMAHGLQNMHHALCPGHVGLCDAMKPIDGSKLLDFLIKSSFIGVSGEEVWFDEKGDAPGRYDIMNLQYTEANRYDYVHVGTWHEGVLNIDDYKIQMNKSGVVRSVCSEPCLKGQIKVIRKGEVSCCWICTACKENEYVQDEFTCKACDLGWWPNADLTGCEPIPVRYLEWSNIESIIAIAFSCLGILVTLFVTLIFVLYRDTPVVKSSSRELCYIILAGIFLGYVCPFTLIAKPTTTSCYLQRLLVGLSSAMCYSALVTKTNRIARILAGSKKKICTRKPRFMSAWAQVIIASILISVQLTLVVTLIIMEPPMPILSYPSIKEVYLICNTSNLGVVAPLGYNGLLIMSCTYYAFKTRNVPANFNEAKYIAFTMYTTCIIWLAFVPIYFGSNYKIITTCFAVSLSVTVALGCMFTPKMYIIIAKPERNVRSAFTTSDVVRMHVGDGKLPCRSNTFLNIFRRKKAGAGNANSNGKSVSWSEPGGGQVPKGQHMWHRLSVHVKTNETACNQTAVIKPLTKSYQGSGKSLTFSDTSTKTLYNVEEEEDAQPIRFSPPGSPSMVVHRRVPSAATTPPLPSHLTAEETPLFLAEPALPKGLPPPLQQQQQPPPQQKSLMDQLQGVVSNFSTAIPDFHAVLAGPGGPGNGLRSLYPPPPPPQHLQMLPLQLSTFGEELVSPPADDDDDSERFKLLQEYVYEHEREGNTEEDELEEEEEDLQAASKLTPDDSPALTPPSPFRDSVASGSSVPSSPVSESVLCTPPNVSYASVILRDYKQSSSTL

[6] = target: Metabotropic glutamate receptor 8 (Homo sapiens, UniProt O00222); assay: Tested for […] in non-neuronal cells (RGT) expressing human Metabotropic glutamate receptor 8 by measuring L-AP4 (0.3 uM of forskolin) (15 uM)-stimulated cAMP formation; type: functional, cell-based
[7] = target: Metabotropic glutamate receptor 5 (Homo sapiens, UniProt P41594); assay: Tested for […] in non-neuronal cells (RGT) expressing human Metabotropic glutamate receptor 5 by measuring ACPD (100 uM)-stimulated phosphoinositide hydrolysis; type: functional, cell-based
Metabotropic glutamate receptor 5, sequence (P41594 whole entry): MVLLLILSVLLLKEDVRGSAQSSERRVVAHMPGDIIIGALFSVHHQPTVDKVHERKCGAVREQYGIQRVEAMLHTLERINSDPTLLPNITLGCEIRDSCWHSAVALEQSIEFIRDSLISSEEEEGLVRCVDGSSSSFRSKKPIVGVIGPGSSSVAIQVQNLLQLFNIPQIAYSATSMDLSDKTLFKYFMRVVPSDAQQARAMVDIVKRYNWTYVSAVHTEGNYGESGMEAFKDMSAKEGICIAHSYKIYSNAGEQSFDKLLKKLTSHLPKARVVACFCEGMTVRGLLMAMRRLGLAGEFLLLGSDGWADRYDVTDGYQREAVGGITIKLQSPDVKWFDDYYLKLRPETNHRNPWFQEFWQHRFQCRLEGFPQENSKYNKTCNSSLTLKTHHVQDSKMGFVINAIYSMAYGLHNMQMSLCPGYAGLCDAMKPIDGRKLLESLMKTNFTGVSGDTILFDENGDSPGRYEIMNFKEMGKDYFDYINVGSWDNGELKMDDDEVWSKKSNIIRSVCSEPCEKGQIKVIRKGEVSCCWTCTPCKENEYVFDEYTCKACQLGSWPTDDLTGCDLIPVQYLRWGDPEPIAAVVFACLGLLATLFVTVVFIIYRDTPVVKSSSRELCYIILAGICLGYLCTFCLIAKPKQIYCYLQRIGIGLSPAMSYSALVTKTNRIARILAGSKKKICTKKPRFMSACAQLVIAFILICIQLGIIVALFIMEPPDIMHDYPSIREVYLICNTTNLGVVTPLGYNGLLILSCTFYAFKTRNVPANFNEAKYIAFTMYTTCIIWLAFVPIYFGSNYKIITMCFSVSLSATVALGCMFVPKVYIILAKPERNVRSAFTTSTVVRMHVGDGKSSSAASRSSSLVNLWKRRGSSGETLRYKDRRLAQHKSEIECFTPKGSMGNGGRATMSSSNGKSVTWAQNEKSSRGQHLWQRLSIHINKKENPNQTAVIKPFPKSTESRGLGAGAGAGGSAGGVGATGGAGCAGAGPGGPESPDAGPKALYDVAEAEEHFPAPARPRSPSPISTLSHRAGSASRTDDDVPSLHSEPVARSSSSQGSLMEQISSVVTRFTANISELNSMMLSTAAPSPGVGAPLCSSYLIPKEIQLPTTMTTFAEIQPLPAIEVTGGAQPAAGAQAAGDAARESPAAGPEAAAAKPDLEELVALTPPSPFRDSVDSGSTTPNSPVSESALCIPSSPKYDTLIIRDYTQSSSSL

[8] = target: Metabotropic glutamate receptor 4 (Homo sapiens, UniProt Q14833); assay: Tested for […] in non-neuronal cells (RGT) expressing human Metabotropic glutamate receptor 4 by measuring L-AP4 (3 uM) induced inhibition of forskolin (15 uM)-stimulated cAMP formation; type: functional, cell-based
Metabotropic glutamate receptor 4, sequence (Q14833 whole entry): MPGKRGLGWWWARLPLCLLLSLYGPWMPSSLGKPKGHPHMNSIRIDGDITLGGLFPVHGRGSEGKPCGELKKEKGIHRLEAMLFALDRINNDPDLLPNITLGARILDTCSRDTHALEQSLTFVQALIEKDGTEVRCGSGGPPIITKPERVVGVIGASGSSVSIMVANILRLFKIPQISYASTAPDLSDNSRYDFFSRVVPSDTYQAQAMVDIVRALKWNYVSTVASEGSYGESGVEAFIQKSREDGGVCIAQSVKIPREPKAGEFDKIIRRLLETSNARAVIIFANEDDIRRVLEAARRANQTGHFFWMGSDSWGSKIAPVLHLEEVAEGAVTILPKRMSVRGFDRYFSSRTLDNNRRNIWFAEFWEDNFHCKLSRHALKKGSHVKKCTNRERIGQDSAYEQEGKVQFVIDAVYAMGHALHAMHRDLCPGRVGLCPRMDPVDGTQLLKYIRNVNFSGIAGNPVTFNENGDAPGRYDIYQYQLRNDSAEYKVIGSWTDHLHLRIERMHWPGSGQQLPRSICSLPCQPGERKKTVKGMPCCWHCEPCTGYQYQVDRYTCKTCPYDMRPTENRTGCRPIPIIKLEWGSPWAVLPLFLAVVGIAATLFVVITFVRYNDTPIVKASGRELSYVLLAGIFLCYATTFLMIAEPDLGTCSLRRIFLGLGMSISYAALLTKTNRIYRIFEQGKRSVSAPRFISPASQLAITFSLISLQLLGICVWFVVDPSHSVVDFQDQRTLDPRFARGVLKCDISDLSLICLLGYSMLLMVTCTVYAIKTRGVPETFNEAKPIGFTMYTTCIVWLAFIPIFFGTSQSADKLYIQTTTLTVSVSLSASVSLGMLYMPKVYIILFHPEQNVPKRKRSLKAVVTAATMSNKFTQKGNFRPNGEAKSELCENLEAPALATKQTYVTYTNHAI

[9] = target: Metabotropic glutamate receptor 3 (Homo sapiens, UniProt Q14832); assay: Tested for […] in non-neuronal cells (RGT) expressing human Metabotropic glutamate receptor 3 by measuring ACPD (3 uM) induced inhibition of forskolin (15 uM)-stimulated cAMP formation; type: functional, cell-based
Metabotropic glutamate receptor 3, sequence (Q14832 whole entry): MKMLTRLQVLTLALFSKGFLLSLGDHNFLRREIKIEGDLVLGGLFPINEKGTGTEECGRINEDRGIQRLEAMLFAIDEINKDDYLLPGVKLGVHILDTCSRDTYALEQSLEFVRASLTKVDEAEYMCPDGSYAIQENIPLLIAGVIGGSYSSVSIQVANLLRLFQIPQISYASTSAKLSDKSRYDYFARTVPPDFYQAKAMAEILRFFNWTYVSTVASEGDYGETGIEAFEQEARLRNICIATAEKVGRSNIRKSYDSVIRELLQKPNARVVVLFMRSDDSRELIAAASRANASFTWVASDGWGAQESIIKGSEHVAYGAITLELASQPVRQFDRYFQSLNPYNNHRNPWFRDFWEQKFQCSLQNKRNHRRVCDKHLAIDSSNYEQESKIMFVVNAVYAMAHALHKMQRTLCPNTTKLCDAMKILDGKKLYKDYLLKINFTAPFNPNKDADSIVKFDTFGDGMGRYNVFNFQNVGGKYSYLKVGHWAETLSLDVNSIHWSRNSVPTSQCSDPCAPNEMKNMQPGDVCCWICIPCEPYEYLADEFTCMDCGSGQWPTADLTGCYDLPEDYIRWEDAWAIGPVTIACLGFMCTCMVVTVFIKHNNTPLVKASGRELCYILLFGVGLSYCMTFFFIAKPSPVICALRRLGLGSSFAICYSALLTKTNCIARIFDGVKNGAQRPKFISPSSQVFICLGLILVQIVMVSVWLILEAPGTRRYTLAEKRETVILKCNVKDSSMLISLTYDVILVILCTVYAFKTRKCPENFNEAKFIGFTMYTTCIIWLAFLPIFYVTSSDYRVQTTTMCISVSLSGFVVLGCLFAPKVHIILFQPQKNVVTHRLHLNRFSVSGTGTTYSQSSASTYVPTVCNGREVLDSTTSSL

[10] = target: Metabotropic glutamate receptor 2 (Homo sapiens, UniProt Q14416); assay: Tested for […] in non-neuronal cells (RGT) expressing human Metabotropic glutamate receptor 2 by measuring ACPD (3 uM) induced inhibition of forskolin (15 uM)-stimulated cAMP formation; type: functional, cell-based
[11] = target: Metabotropic glutamate receptor 7 (Homo sapiens, UniProt Q14831); assay: Tested for […] in non-neuronal cells (RGT) expressing human mGlu7a receptor by measuring L-AP4 (1000 uM of forskolin (15 uM)-stimulated cAMP formation; type: functional, cell-based

IC50 [1]: 3.2 µM
SMILES: N[C@@H](C[C@H](CC1CCC(c2ccccc2)CC1)C(=O)O)C(=O)O (some centres not stated)

IC50 [2]: > 100 µM
IC50 [3]: > 100 µM
IC50 [4]: 0.38 µM
IC50 [5]: > 300 µM
IC50 [6]: > 300 µM
IC50 [7]: > 300 µM
IC50 [8]: > 300 µM
IC50 [9]: 6.1 µM
IC50 [10]: 18 µM
IC50 [11]: > 300 µM
SMILES: N[C@@H](C[C@H](CC(c1ccccc1)c1ccccc1)C(=O)O)C(=O)O

IC50 [1]: 1.4 µM
SMILES: N[C@@H](C[C@H](CC1CCC(c2ccccc2)(c2ccccc2)CC1)C(=O)O)C(=O)O

IC50 [1]: 8.82 µM
SMILES: N[C@@H](C[C@@H](Cc1ccc2ccccc2c1)C(=O)O)C(=O)O (single isomer, unassigned)

IC50 [1]: 3.16 µM
SMILES: N[C@@H](C[C@H](Cc1ccc(C(F)(F)F)cc1)C(=O)O)C(=O)O

IC50 [1]: > 100 µM
SMILES: N[C@@H](C[C@@H](Cc1ccc(C(F)(F)F)cc1)C(=O)O)C(=O)O (single isomer, unassigned)

IC50 [1]: 2.49 µM
SMILES: N[C@@H](C[C@H](CCCCCc1ccccc1)C(=O)O)C(=O)O

IC50 [1]: 14.5 µM
SMILES: N[C@@H](C[C@@H](CCc1ccccc1)C(=O)O)C(=O)O (single isomer, unassigned)

IC50 [1]: 4.65 µM
SMILES: N[C@@H](C[C@H](CCc1ccccc1)C(=O)O)C(=O)O

IC50 [2]: 34 µM
IC50 [3]: 9.2 µM
IC50 [4]: 1.84 µM
IC50 [1]: 1.84 µM
SMILES: N[C@@H](C[C@H](CCCc1ccccc1)C(=O)O)C(=O)O

IC50 [1]: 4.6 µM
SMILES: Cc1ccc(C[C@@H](C[C@H](N)C(=O)O)C(=O)O)cc1

IC50 [1]: 9.28 µM
SMILES: COc1cccc(C[C@@H](C[C@H](N)C(=O)O)C(=O)O)c1

IC50 [1]: 21.1 µM
SMILES: N[C@@H](C[C@@H](CCCc1ccccc1)C(=O)O)C(=O)O

IC50 [1]: 3.33 µM
SMILES: N[C@@H](C[C@H](Cc1ccc2ccccc2c1)C(=O)O)C(=O)O

IC50 [1]: 7.85 µM
SMILES: Cc1ccc(C[C@H](C[C@H](N)C(=O)O)C(=O)O)cc1 (single isomer, unassigned)

IC50 [1]: 8.99 µM
SMILES: N[C@@H](C[C@H](Cc1ccccc1)C(=O)O)C(=O)O

IC50 [1]: > 100 µM
SMILES: N[C@@H](C[C@@H](CCCCc1ccccc1)C(=O)O)C(=O)O

IC50 [1]: 3.4 µM
SMILES: N[C@@H](C[C@H](CCCCC(c1ccccc1)c1ccccc1)C(=O)O)C(=O)O

IC50 [2]: > 100 µM
IC50 [5]: > 300 µM
IC50 [6]: > 300 µM
IC50 [7]: > 300 µM
IC50 [8]: > 300 µM
IC50 [9]: 30 µM
IC50 [10]: 50 µM
IC50 [11]: > 300 µM
SMILES: N[C@@H](C[C@H](CCCC(c1ccccc1)c1ccccc1)C(=O)O)C(=O)O

IC50 [2]: 14.5 µM
IC50 [3]: 39.3 µM
IC50 [4]: 1.16 µM
SMILES: N[C@@H](C[C@H](CCC(c1ccccc1)c1ccccc1)C(=O)O)C(=O)O

IC50 [1]: 4.69 µM
SMILES: N[C@@H](C[C@H](CCCCc1ccccc1)C(=O)O)C(=O)O
